Laboratory results as given in patent publication US20110142914A1, “INHALABLE COMPOSITIONS HAVING ENHANCED BIOAVAILABILITY” (CYTOTECH LABS, LLC, priority 2007, published 2011).

Tested on: IL-12
Experiment: Inflammatory response to pulmonary administration: BAL supernatant ELISA for IL-12 elevation
Type: in vivo
Conditions: mice
Experimental: Inflammatory response to the administration of CoQ10 (or the liposomal concentrate of CoQ10 produced in Example 1 above) to the lungs. Surgery is performed on sacrificed mice to expose the pleural cavity and trachea at the throat. […] An aliquot (about 0.75 mL) of phosphate buffered saline is instilled through the cannula into the lungs and removed to wash the bronchial and alveolar surfaces. This process is repeated for a total of three washes. The phosphate buffered saline containing cells is placed into centrifuge vials and centrifuged at about 3000 rpm (MiniSpin Plus, Eppendorf International, Hamburg, Del.). The supernatant is removed leaving the collected cells in the pellet. The supernatant from the BAL (Bronchoalveolar Lavage) is analyzed by enzyme-linked immunosorbent assay (ELISA) for IL-12 elevation (n=2 per sample tested).

COC1=C(OC)C(=O)C(C/C=C(\C)CC/C=C(\C)CC/C=C(\C)CC/C=C(\C)CC/C=C(\C)CC/C=C(\C)CC/C=C(\C)CC/C=C(\C)CC/C=C(\C)CCC=C(C)C)=C(C)C1=O [CoQ10, Coenzyme Q10]
inflammation of the lung: not a cause of inflammation of the lung | rise in IL-12 levels (BAL supernatant, ELISA) (n=2 per sample tested): not connected to a rise in IL-12 levels
